Measured values reported in patent publication US6329342A, “Treatment of congestive heart failure with growth hormone secretagogues” (Eli Lilly and Company, priority 2000, dated 2001).

What was measured:
Pituitary cells = experiment: Pituitary Cell Culture Assay for Growth Hormone Secretion; assay type: cell-based, rat (male Sprague-Dawley); conditions: 0.25 h, read-out: GH secretion EC50; heading: GH secretion EC50; rat anterior pituitary cells, 15 min at 37° C.; Examples Part 1
From the text: Thirty-two 250 g male Sprague-Dawley rats were used for each assay. The animals were killed by decapitation and anterior pituitaries were removed and placed into ice cold culture medium. The pituitaries were sectioned into eighths and enzymatically digested using trypsin (Sigma Chemical) to weaken connective tissue. Pituitary cells were dispersed by mechanical agitation, collected, pooled and then seeded into 24-well plates (300,000 cells/well). After 4 days of culture, the cells formed an even monolayer. Cells were then washed with medium and challenged to secrete GH by the addition of GH secretagogues to the medium. After 15 min at 37° C., the medium was removed and stored frozen until radioimmunoassays for rat GH were performed. Doses of secretagogue were added in quadruplicate. Compounds disclosed herein are active in the assay as described. Both EC50 and efficacy values were calculated by the 4-parameter logistic equation. Such values were pooled and represented as mean +/- standard error, when appropriate.

heart failure = conditions: cited from earlier work

SMILES	EC50 (Pituitary cells)	mortality in patients (heart failure)
COC(=O)[C@@H]1CCCN1C(=O)C(c1ccccc1)n1cnc(NC(=O)[C@@H](COCc2ccccc2)NC(=O)C(C)(C)N)c1 (stereo partly drawn) [Example 6]	5.53 µM	–
COC(=O)[C@@H]1CCCN1C(=O)C(c1ccccc1)n1cnc(NC(=O)[C@H](COCc2ccccc2)NC(=O)C(C)(C)N)c1 (stereo partly drawn) [Example 8]	2.39 µM	–
COc1ccccc1OCCNCC(O)COc1cccc2[nH]c3ccccc3c12 (stereo not drawn) [Carvedilol]	–	dramatic reductions in mortality in patients
